Target: T1, TbCaV (TbCav; FS179; TbCaCh) (Trypanosoma brucei, UniProt Q38BV7)
T1 construct: gene Tb10.70.4750; native full-length channel in intact T. brucei cells, 2693 aa, approx. 301 kDa, single subunit, untagged wild type
Assay: Ca2+ entry into intact T. brucei, Cal-590 fluorescence
Assay type: cell-based
Details: wild-type T. brucei BSF (Figure 9A inset); 1.8 mM Ca2+ added after 100 μM EGTA, BAG buffer pH 7.0; whole-cell Ca2+ entry attributed to TbCaV, direct binding not shown

T1 sequence (Q38BV7 1-2693): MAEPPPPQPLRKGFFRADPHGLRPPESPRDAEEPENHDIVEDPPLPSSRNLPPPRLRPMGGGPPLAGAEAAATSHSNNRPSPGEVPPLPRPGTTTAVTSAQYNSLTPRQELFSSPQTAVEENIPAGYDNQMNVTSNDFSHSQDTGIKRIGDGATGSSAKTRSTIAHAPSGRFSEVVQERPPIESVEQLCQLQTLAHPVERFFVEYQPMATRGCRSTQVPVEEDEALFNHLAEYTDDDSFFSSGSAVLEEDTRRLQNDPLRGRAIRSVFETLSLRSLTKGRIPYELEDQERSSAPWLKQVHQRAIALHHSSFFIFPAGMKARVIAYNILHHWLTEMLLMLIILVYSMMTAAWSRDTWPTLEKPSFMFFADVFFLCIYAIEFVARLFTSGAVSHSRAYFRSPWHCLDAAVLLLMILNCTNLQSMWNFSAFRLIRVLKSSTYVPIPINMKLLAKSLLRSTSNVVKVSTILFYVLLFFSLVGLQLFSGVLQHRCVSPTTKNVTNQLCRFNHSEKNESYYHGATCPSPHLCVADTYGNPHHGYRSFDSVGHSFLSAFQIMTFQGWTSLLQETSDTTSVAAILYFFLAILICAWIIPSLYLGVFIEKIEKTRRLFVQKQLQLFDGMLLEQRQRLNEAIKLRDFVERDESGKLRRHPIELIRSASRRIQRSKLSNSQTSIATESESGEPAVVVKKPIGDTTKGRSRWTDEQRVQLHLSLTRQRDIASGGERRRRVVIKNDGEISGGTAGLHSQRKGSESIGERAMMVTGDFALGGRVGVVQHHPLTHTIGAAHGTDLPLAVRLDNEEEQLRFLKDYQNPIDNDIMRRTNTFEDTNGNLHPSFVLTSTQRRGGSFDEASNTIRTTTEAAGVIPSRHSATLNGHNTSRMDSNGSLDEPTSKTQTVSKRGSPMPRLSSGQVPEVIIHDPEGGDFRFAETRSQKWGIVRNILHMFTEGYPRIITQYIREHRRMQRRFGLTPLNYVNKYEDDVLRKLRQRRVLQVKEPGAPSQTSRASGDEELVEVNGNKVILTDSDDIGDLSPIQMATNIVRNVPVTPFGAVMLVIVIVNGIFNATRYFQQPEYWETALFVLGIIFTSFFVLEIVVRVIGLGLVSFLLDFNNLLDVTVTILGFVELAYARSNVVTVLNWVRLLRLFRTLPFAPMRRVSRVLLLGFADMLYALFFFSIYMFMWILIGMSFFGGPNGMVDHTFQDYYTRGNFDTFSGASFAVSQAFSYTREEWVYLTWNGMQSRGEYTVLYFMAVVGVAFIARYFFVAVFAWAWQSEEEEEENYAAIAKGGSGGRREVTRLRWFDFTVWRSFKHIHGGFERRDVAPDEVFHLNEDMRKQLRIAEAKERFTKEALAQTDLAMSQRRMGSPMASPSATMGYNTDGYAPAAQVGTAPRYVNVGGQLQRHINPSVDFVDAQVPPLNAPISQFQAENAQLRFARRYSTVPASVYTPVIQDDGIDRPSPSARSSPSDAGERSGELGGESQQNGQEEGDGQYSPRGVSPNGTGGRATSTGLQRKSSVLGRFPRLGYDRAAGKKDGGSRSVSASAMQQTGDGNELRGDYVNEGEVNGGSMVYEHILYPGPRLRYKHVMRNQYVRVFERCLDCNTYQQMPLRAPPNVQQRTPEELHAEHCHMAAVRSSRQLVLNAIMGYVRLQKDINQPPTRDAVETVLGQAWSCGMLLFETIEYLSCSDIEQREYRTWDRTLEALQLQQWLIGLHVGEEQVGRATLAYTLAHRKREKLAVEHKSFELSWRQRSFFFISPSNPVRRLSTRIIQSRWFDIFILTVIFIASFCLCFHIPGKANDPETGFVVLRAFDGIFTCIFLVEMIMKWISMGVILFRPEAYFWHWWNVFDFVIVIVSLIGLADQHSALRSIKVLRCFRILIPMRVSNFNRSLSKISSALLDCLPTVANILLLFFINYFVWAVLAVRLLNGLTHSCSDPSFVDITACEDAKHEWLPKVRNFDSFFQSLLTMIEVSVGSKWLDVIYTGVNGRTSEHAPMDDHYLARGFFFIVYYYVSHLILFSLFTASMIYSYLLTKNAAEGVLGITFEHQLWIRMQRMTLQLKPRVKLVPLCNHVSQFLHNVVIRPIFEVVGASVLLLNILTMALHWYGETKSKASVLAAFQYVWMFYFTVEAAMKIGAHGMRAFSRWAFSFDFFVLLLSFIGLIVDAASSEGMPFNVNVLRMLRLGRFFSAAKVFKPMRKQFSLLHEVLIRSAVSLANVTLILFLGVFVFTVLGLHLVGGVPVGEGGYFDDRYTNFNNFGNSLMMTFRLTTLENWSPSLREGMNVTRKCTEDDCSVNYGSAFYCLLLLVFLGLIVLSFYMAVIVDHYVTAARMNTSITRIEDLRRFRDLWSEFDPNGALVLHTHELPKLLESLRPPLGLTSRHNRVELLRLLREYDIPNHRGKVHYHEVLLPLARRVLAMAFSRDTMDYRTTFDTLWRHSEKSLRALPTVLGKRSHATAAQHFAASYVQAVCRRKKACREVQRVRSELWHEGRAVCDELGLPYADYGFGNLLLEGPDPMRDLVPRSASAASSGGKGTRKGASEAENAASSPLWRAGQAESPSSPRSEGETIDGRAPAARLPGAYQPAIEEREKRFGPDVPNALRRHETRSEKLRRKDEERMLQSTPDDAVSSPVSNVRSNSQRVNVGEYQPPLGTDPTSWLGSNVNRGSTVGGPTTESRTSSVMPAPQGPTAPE

`CC(=O)Nc1ccc([N+](=O)[O-])c2nonc12` [NBD-A, N-(7-nitro-2,1,3-benzoxadiazol-4-yl) acetamide] gave an IC50 of 1.46 ± 0.03 µM.
